# Patent publication US6831199B1, “Pyrimidine compounds and derivatives thereof” (G. D. Searle & Co., priority 1995, dated 2004)
# Structures can show the parent of a compound that is named as a salt. Where two headings read alike, the source gives them in different places.
# Columns and labels:
# [1] = molecular target: T1, Human fibrinogen receptor (αIIbβ3) (Homo sapiens, UniProt P05106+P08514); experiment: Purified IIb/IIIa receptor assay (solid phase receptor assay, competition with biotinylated vitronectin); format: binding; conditions: read-out: IIb/IIIa IC50
# T1 construct: Human fibrinogen receptor (αIIbβ3) was purified from outdated platelets; from tissue; host or cells: outdated human platelets
# Summary of the method: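 Purified platelet αIIbβ3 coated overnight at 4 °C in TBS with 1.0 mM Ca/Mg/Mn, pH 7.4, then BSA-blocked. Compounds (top 1.0×10^−4 M) competed with 1 nM biotinylated vitronectin for 2 h at room temperature. Bound label detected by HRP anti-biotin, A450; values normalized to no-competitor controls, four-parameter fit.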
# [2] = test system: platelet rich plasma; experiment: Human platelet rich plasma assay (ADP induced platelet aggregation); format: cell-based; conditions: ADP induced platelet aggregation in human platelet rich plasma, read-out: Human PRP
# Procedure: Human Platelet Rich Plasma Assays
# Healthy aspirin free donors were selected from a pool of volunteers. The harvesting of platelet rich plasma and subsequent ADP induced platelet aggregation assays were performed as described in Zucker, M. B., “Platelet Aggregation Measured by the Photometric Method”, Methods in Enzymology 169(1989):117-133. Standard venipuncture techniques using a butterfly allowed the withdrawal of 45 mL of whole blood into a 60 mL syringe containing 5 mL of 3.8% trisodium citrate. Following thorough mixing in the syringe, the anti-coagulated whole blood was transferred to a 50 mL conical polyethylene tube. The blood was centrifuged at room temperature for 12 minutes at 200×g to sediment non-platelet cells. Platelet rich plasma was removed to a polyethylene tube and stored at room temperature until used. Platelet poor plasma was obtained from a second centrifugation of the remaining blood at 2000×g for 15 minutes. Platelet counts are typically 300,000 to 500,000 per microliter. Platelet rich plasma (0.45 mL) was aliquoted into siliconized cuvettes and stirred (1100 rpm) at 37° C. for 1 minute prior to adding 50 uL of pre-diluted test compound. After 1 minute of mixing, aggregation was initiated by the addition of 50 uL of 200 uM ADP. Aggregation was recorded for 3 minutes in a Payton dual channel aggregometer (Payton Scientific, Buffalo, N.Y.). The percent inhibition of maximal response (saline control) for a series of test compound dilutions was used to determine a dose response curve.
# [3] = molecular target: T2, Human vitronectin receptor (αvβ3) (Homo sapiens, UniProt P05106+P06756); experiment: Vitronectin adhesion assay (solid phase receptor assay, competition with biotinylated vitronectin); format: binding; conditions: read-out: AvB3 IC50
# T2 construct: Human vitronectin receptor (αvβ3) was purified from human placenta; from tissue; host or cells: human placenta
# Summary of the method: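 Purified human αvβ3 coated overnight at 4 °C in TBS with 1.0 mM Ca++, Mg++, Mn++, pH 7.4; compounds (top final 1.0×10^−4 M) competed with 1 nM biotinylated vitronectin for 2 h at room temperature. Bound ligand detected by HRP anti-biotin/OPD at A450; values normalized to no-competitor controls, four-parameter curve fit.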
Compound,IC50 [1] [µM],IC50 [2] [µM],IC50 [3] [µM],"IC50 ([2]; Homo sapiens, Platelet) [µM]"
3S-[[2-[[[3-[(aminoiminomethyl)amino]phenyl]carbonyl]amino]acetyl]amino]-4-hydroxybutanoic acid [Example 86],0.246,> 200,0.00879,
"N=C(N)Nc1cccc(C(=O)NCC(=O)NC(CCSc2ccccc2C(=O)O)CC(=O)O)c1 (racemic) [60(B), (±)2-[3-[[2-[[[3-[(aminoiminomethyl)amino]phenyl)carbonyl]amino]acetyl]amino]-4-carboxybutyl]thio]benzoic acid, trifluoroacetate salt]",0.0727,> 200,0.00121,
"CCOC(=O)CC(NC(=O)CNC(=O)c1cccc(NC(=N)N)c1)c1cccnc1 (racemic) [Example 1, (±)ethyl β-[[2-[[[3-[(aminoiminomethyl)amino]phenyl]carbonyl]amino]acetyl]amino]pyridine-3-propanoate, bis(trifluoroacetate)salt]",8.35,,0.0769,> 200
"N=C(N)Nc1cccc(C(=O)NCC(=O)NC(CC(=O)O)c2ccc3c(c2)OCO3)c1 (racemic) [Example 6, (±)β-[[2-[[[3-[(aminoiminomethyl)amino]phenyl]carbonyl]amino]acetyl]amino]-1,3-benzodioxole-5-propanoic acid, trifluoroacetate salt]",0.0159,,0.00104,80
"O=C(O)CC(NC(=O)CNC(=O)c1ccc(Cl)c(NC2=NCCCCC2)c1)c1cccnc1 (racemic) [Example 21, (±)β-[[2-[[[4-chloro-3-[(3,4,5,6-tetrahydro-2H-azepin-7-yl)amino]phenyl]carbonyl]amino]acetyl]amino]pyridine-3-propanoic acid, bis TFA Salt]",1.91,,0.00244,> 200
"O=C(O)CC(NC(=O)CNC(=O)c1cc(NC2=NCCCCC2)cc(NC2=NCCCCC2)c1)c1cccnc1 (racemic) [Example 22, (±)β-[[2-[[[3,5-bis[(3,4,5,6-tetrahydro-2H-azepin-7-yl)amino]phenyl]carbonyl]amino]acetyl]amino]pyridine-3-propanoic acid, tris(trifluoroacetate)salt]",0.28,,0.00137,> 200
"N=C(Nc1cccc(C(=O)NCC(=O)NC(CC(=O)O)c2cccnc2)c1)c1ccccc1 (racemic) [Example 26, (±)β-[[2-[[[3-[(iminophenylmethyl]amino]phenyl]carbonyl]amino]acetyl]amino]pyridine-3-propanoic acid, bis(trifluoroacetate)salt]",0.809,,0.0142,> 200
"N=C(N)Nc1cccc(C(=O)NCC(=O)NC(CC(=O)O)c2ccc(-c3ccccc3)cc2)c1 (racemic) [Example 37, (±)β-[[2-[[[3-[(aminoiminomethyl)amino]phenyl]carbonyl]amino]acetyl]amino][1,1′-biphenyl]-4-propanoic acid, trifluoroacetate salt]",0.0139,,0.00088,> 20
"N=C(N)Nc1cc(C(=O)NCC(=O)NC(CC(=O)O)c2cc(C(F)(F)F)cc(C(F)(F)F)c2)cc(C(F)(F)F)c1 (racemic) [Example 39, (±)β-[[(2-[[[3-[(aminoiminomethyl)amino]-5-(trifluoromethyl)phenyl]carbonyl]amino]acetyl]amino]-3,5-bis(trifluoromethyl)benzenepropanoic acid, trifluoroacetate salt]",1.54,,0.0122,> 20
"N=C(N)Nc1cccc(C(=O)NCC(=O)NC(CC(=O)O)c2cccc3ccccc23)c1 (racemic) [Example 41, (±)β-[[2-[[[3-[(aminoiminomethyl)amino]phenyl]carbonyl]amino]acetyl]amino]naphthalene-1-propanoic acid, trifluoroacetate salt]",0.83,,0.0121,> 200
"COC(=O)CC(CC(=O)O)NC(=O)CNC(=O)c1cccc(NC(=N)N)c1 (racemic) [Example 54, (±)hydrogen methyl 3-[[2-[[[3-[(aminoiminomethyl)amino]phenyl]carbonyl]amino]acetyl]amino]pentanedioate, trifluoroacetate salt]",0.175,,0.0107,> 200
"N=C(N)Nc1cccc(C(=O)NCC(=O)NC(CC(=O)O)c2ccco2)c1 (racemic) [Example 55, (±)β-[[2-[[[3-[(aminoiminomethyl)amino]phenyl]carbonyl]amino]acetyl]amino]furan-2-propanoic acid, trifluoroacetate salt]",0.117,,0.00477,> 200
"COC(=O)c1ccccc1SCCC(CC(=O)O)NC(=O)CNC(=O)c1cccc(NC(=N)N)c1 (racemic) [Example 62, (±)methyl 2-[[3-[2-[[[3-[(aminoiminomethyl)amino]phenyl]carbonyl]amino]acetyl]amino]-4-carboxybutyl]thio]benzoate, trifluoroacetate salt]",0.0284,,0.00142,> 200
"N=C(N)Nc1cc(C(=O)O)cc(C(=O)NCC(=O)NC(CC(=O)O)c2cc(Cl)cc(Cl)c2)c1 (stereo not drawn) [Example 290, β-[[2-[[[3-[(aminoiminomethyl)amino]-5-carboxyphenyl]carbonyl]amino]acetyl]amino]-3,5-dichlorobenzenepropanoic acid, trifluoroacetate salt]",1.02,,0.00162,
"N=C(N)Nc1cc(NC(=N)N)cc(C(=O)NCC(=O)NC(CC(=O)O)c2cc(Cl)cc(Cl)c2)c1 (stereo not drawn) [Example 291, β-[[2-[[[3,5-bis[(aminoiminomethyl)amino]phenyl]carbonyl)amino]acetyl]amino]-3,5-dichlorobenzenepropanoic acid, bis(trifluoroacetate)salt]",0.0374,,0.00124,
"N=C(N)Nc1cc(NC(=O)C(F)(F)F)cc(C(=O)NCC(=O)NC(CC(=O)O)c2cc(Cl)cc(Cl)c2)c1 (stereo not drawn) [Example 292, β-[[2-[[[3-[(aminoiminomethyl)amino]-5-(trifluoroacetyl)amino]phenyl]carbonyl]amino]acetyl]amino]-3,5-dichlorobenzenepropanoic acid, trifluoroacetate salt]",0.337,,0.00355,
"N=C(N)Nc1cccc(C(=O)NCC(=O)NC(CC(=O)O)c2ccc(F)cc2)c1 (stereo not drawn) [Example 363, β-[[2-[[[3-[(aminoiminomethyl)amino]phenyl]carbonyl]amino]acetyl]amino]-4-fluorobenzenepropanoic acid, trifluoroacetate salt]",0.509,,0.00212,
"N=C(N)Nc1cccc(C(=O)NCC(=O)NC(CC(=O)O)c2ccc(Br)s2)c1 (stereo not drawn) [Example 366, β-[[2-[[[3-[(aminoiminomethyl)amino]phenyl]carbonyl]amino]acetyl]amino]-5-bromothiophene-2-propanoic acid, trifluoroacetate salt, monohydrate]",0.0913,,0.00044,
ethyl 3S-[[2-[[[3-[[(cyanoimino)(methylamino)methyl]amino]phenyl]carbonyl]amino]acetyl]amino]-4-pentynoate [Example 140],> 100,,4.59,
